Target: T1, serotonin receptor (Rattus norvegicus, UniProt P19327)
T1 construct: To a cerebral cortex nucleated from a Wistar-strain male rat; from tissue; host or cells: cerebral cortex of male Wistar rat (membrane preparation)
T1 sequence (P19327 1-422): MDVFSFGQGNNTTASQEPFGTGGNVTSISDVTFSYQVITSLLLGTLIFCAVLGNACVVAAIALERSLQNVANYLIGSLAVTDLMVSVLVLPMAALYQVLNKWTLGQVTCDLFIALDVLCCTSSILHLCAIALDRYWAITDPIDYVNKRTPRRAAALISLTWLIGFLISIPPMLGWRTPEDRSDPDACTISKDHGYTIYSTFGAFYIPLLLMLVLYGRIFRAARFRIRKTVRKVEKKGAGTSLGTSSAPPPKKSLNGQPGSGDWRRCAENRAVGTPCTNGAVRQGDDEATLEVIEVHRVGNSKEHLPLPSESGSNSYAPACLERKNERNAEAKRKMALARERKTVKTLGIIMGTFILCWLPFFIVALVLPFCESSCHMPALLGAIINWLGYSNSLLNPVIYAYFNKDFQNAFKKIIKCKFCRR
Test: Affinity for serotonin receptor, [3H]8-OHDPAT binding test in rat cerebral cortex
Design: species or system rat (Wistar-strain male)
Conditions: [3H]8-OHDPAT 0.4 nM; rat cerebral cortex membranes; pH 7.4; 25° C., 30 minutes; read-out: [^3 H]-8-OH-DPAT IC50
Procedure: The experiment was carried out according to the method of S. T. Perouka (J. Neurochem., 47, 529-540 (1986)).
To a cerebral cortex nucleated from a Wistar-strain male rat was added 50 mM Tris-HCl (pH 7.7) buffer, and the mixture was homogenized by a Polytron®. The homogenate was centrifuged at 40,000 G for 10 minutes, and the same buffer was added to the precipitate obtained, followed by homogenization and incubation at 37° C. for 30 minutes. The suspension was again subjected to centrifugation at 40,000 G for 10 minutes, and the same buffer was added to the precipitate, followed by homogenization and a further centrifugation at 40,000 G for 10 minutes. To the final precipitate obtained was added 50 mM Tris-HCl (10 μM pargyline, 4 mM CaCl2 0.1% ascorbic acid) (pH 7.4), and the mixture was homogenized and used for the binding test. The [^3 H]8-OHDPAT used for the binding test was 0.4 nM, with the protein amount being 0.4 to 0.6 mg/ml and the total amount 1 ml. After incubation at 25° C. for 30 minutes, the mixture was filtered by the filtration method, using the Whatman GF/B filter, and the filter was washed 3 times with 5 ml of the same buffer. To the filter was added a scintillation cocktail, followed by a measurement by a liquid scintillation counter.

SMILES | IC50 [nM]
CN1CC(=O)N(CCCCN2CCN(c3ncccn3)CC2)C(=O)c2ccccc21 [Example 25] | 270
O=C1CCc2ccccc2C(=O)N1CCCCN1CCN(c2ncccn2)CC1 [Example 28, 2-(4-(4-(2-pyrimidinyl)piperazinyl)butyl)-1,3,4,5-tetrahydro-2-benzazepine-1,3-dione] | 58.4
O=C1CNc2ccccc2C(=O)N1CCCCN1CCN(c2ncccn2)CC1 [Example 22, 4-(4-(4-(2-pyrimidinyl)piperazinyl)butyl)-2,3,4,5-tetrahydro-1,4-benzodiazepine-3,5-dione] | 67.3
CN1CC(=O)N(CCCCN2CCN(c3ccccn3)CC2)C(=O)c2ccccc21 [Example 24, 1-methyl-4-(4-(4-(2-pyridyl)piperazinyl)butyl)-2,3,4,5-tetrahydro-1,4-benzodiazepine-3,5-dione] | 61.4

Stronger by IC50, values ahead:

IC50 [nM] | SMILES
17.1 | O=C1CCc2ccccc2C(=O)N1CCCCN1CCN(c2ccccn2)CC1 [Example 27, 2-(4-(4-(2-pyridyl)piperazinyl)butyl)-1,3,4,5-tetrahydro-2-benzazepine-1,3-dione]
14.3 | O=C1CSc2ccccc2C(=O)N1CCCCN1CCN(c2ncccn2)CC1 [Example 19, 4-(4-(4-(2-pyrimidinyl)piperadinyl)butyl)-2,3,4,5-tetrahydro-1,4-benzothiazepine-3,5-dione]
13.3 | O=C1CNc2ccccc2C(=O)N1CCCCN1CCN(c2ccccn2)CC1 [Example 21, 4-(4-(4-(2-pyridyl)piperazinyl)butyl)-2,3,4,5-tetrahydro-1,4-benzodiazepine-3,5-dione]
9.29 | O=C1CSc2ccccc2C(=O)N1CCCCN1CCN(c2ccccc2)CC1 [Example 17]
3.28 | O=C1CSc2ccccc2C(=O)N1CCCCN1CCN(c2ccccn2)CC1 [Example 18, 4-(4-(4-(2-pyridyl)piperazinyl)butyl)-2,3,4,5-tetrahydro-1,4-benzothiazeoine-3,5-dione]

— patent US5312625A, “Fused 7-membered cyclic compound and antipsychotic preparation containing the same” (Suntory Limited, priority 1990, dated 1994)
